Assay results from patent US7989451B2, “Tricyclic 1,2,4-triazine oxides and compositions for therapeutic use in cancer treatments” (Auckland Uniservices Limited, priority 2005, dated 2011).
Read-outs that look alike come from different tables or passages of the source.

Columns and labels:
[1] = tested on: H460, non-small cell lung carcinoma; experiment: Fractionated tumour excision assay, H460 xenograft; format: in vivo, CD-1 nude mice; settings: for log cell kill compared to radiation alone: i.p. at 100% of MTD twice daily for 4 days, 30 min before each of 8×2.5 Gy, excised 18 hr after treatment
Protocol: (§1) FIG. 3 illustrates by way of a plot the activity of fractionated dose TPZ and compound 77 against hypoxic cells in three human tumour xenograft models: H460, non-small cell lung carcinoma; HT29, human colon carcinoma; SiHa, human cervical carcinoma. Drugs (1.0× fractionated MTD) were administered 30 min before each of 8×2.5 Gy doses of radiation.
(§2) The activity of multiple doses of compound 77 and TPZ against hypoxic cells in three human tumour xenografts is illustrated in FIG. 3. Subcutaneous tumours (average of two largest diameters 8-10 mm) were grown by inoculating 10^7 cells into the midline of the back in CD-1 nude mice. Drugs were administered by i.p. injection at 100% of the MTD for twice daily (9 am, 3 pm) administration for 4 days, either alone or 30 min before each of 8×2.5 Gy local irradiation of the tumour. Tumours were excised 18 hr after treatment and plated to determine the number of clonogens/g tumour tissue. Antitumour activity is measured as logs of cell kill in addition to the cell kill observed for radiation alone.

[2] = tested on: HT29, human colon carcinoma; experiment: Fractionated tumour excision assay, HT29 xenograft; format: in vivo, CD-1 nude mice; settings: for log cell kill compared to radiation alone: i.p. at 100% of MTD twice daily for 4 days, 30 min before each of 8×2.5 Gy, excised 18 hr after treatment
Protocol: as §1, §2

[3] = tested on: SiHa, human cervical carcinoma; experiment: Fractionated tumour excision assay, SiHa xenograft; format: in vivo, CD-1 nude mice; settings: for log cell kill compared to radiation alone: i.p. at 100% of MTD twice daily for 4 days, 30 min before each of 8×2.5 Gy, excised 18 hr after treatment
Protocol: as §1, §2

[4] = tested on: human colon carcinoma HT29; experiment: Proliferation assay (IC50) under aerobic and hypoxic conditions, HT29; format: cell-based; settings: for IC50: Homo sapiens, 4 h drug exposure, sulforhodamine B
Summary of the method: (§3)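 HT29 (1100) and SiHa (1500) cells in αMEM with 17 mM glucose and 100 μM 2′-dCyd, exposed 4 h at 37 °C to 3-fold dilutions under 20% O2 or anoxia (<0.001% O2). Regrowth 5 (oxic) or 6 (anoxic) days; IC50 by sulforhodamine B. HCR = IC50 aerobic/IC50 hypoxic.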

[5] = tested on: human cervical carcinoma SiHa; experiment: Proliferation assay (IC50) under aerobic and hypoxic conditions, SiHa; format: cell-based; settings: for IC50: Homo sapiens, 4 h drug exposure, sulforhodamine B
Summary of the method: as §3

[6] = tested on: hypoxic cells in HT29 tumours; experiment: HT29 excision assay, single dose in combination with radiation; format: in vivo, CD-1 nude mice
Protocol: HT29 Excision assay. In vivo activity of single dose of compound 77 in combination with radiation. The activity of compound 77 against hypoxic cells in HT29 tumours is illustrated in FIG. 1. Subcutaneous HT29 tumours (average of two largest diameters 8-10 mm) were grown by inoculating 10^7 cells (obtained by enzymatic dissociation of multicellular spheroids) into CD-1 nude mice. Cmpd 77 was administered as a single i.p. dose (560 μmol/kg, which is 75% of the maximum tolerated dose) alone or 5 min after radiation (20 Gy). Tumours were excised 18 h after treatment and plated to determine the number of clonogens/g tumour tissue.

[7] = hypoxic cytotoxicity ratio = IC50 aerobic/IC50 hypoxic
[8] = fractionated drug plus 8×2.5 Gy radiation

Row | SMILES | log cell kill compared to radiation alone [1] | log cell kill compared to radiation alone [2] | log cell kill compared to radiation alone ([3]; SiHa) | IC50 ([4]; HT-29, hypoxic (anaerobic chamber, <0.001% O2), then 6 days growth, read-out: IC50 (μM) hypoxic) | IC50 ([4]; HT-29, oxic (20% O2), then 5 days growth, read-out: IC50 (μM) oxic) | HCR [4, 7] | IC50 ([5]; hypoxic (anaerobic chamber, <0.001% O2), then 6 days growth, read-out: IC50 (μM) hypoxic) | IC50 ([5]; oxic (20% O2), then 5 days growth, read-out: IC50 (μM) oxic) | HCR [5, 7] | Hypoxic cytotoxicity: difference in clonogens/g tumour tissue between radiation-only and radiation+drug groups ([6]; single i.p. dose 560 μmol/kg (75% of MTD) 5 min after radiation (20 Gy), tumours excised 18 h after treatment, ANOVA and Dunnett's test) | Selectivity for hypoxic cells: activity with radiation versus as a single agent ([6]; single i.p. dose 560 μmol/kg alone or 5 min after radiation (20 Gy)) | killing relative to TPZ [1, 8] | killing relative to TPZ [2, 8] | log cell kill in addition to radiation alone, 77 plus radiation relative to TPZ plus radiation ([3]; SiHa tumours, p<0.05, Student's t-test) | killing relative to TPZ ([3]; SiHa, fractionated drug plus 8×2.5 Gy radiation)
1 | Nc1n[n+]([O-])c2ccccc2[n+]1[O-] [TPZ, tirapazamine, reference compound] | significantly (P<0.05) greater log cell kill | significantly (P<0.05) greater log cell kill | significantly (P<0.05) greater log cell kill | – | – | – | – | – | – | – | – | – | – | – | –
2 | [O-][n+]1nc(CCCN2CCOCC2)[n+]([O-])c2cc3c(cc21)CCC3 [Compound 77, 3-[3-(4-Morpholinyl)propyl]-7,8-dihydro-6H-indeno[5,6-e][1,2,4]triazine 1,4-Dioxide] | significantly (P<0.05) greater log cell kill | significantly (P<0.05) greater log cell kill | significantly (P<0.05) greater log cell kill | 2.8 ± 0.6 µM | 349 ± 62 µM | 127 ± 12 | 1.4 ± 0.3 µM | 302 ± 48 µM | 223 ± 14 | statistically significant (p<0.05) | greater activity of 77 with radiation than as a single agent | greater killing than TPZ | greater killing than TPZ | significantly greater | greater killing than TPZ
